Paper PMC11062903, “Discovery of potent inhibitors of α-synuclein aggregation using structure-based iterative learning” (Nature Chemical Biology, 2024)
“Also recorded” adds a separate entry of the source. Where two headings read alike, the source gives them in different places.

Assays:
[1] = target: T1, αS aggregation (surface-catalyzed secondary nucleation) (Homo sapiens, UniProt P37840); assay: light seeded αS aggregation chemical kinetics assay (ThT), secondary nucleation; format: biochemical
T1 construct: made in house; host or cells: E. coli BL21 (DE3)
Description: Secondary nucleation is enabled by adding a small amount of preformed fibrils to a monomeric mixture. Aggregation was tracked using the amyloid binding dye, thioflavin T (ThT).
αS was injected into a Superdex 75 10/300 GL column (GE Healthcare) at a flow rate of 0.5 ml min^−1 and eluted in 20 mM sodium phosphate buffer (pH 4.8) supplemented with 1 mM EDTA. The obtained monomer was diluted in buffer to a desired concentration and supplemented with 50 µM ThT and preformed αS fibril seeds. The molecules (or DMSO alone) were then added at the desired concentration to a final DMSO concentration of 1% (v/v). […] The assay was then initiated by placing the microplate at 37 °C under quiescent conditions in a plate reader (FLUOstar Omega, BMG Labtech). The ThT fluorescence was measured through the bottom of the plate with a 440 nm excitation filter and a 480 nm emission filter.
In the presence of low concentrations of seeds (approximately nanomolar), the fibril mass fraction, M(t), over time was described using a generalized logistic function to the normalized aggregation data[9],[70] M(t)/mtot=1−1/1+a/ce^κt^c where mtot denotes the total concentration of αS monomers. The parameters a and c are defined as a=λ^2/2κ^2 c=2/n2(n2+1). […]

αS fibrils = target: T2, αS fibrils (Homo sapiens, UniProt P37840); assay: SPR binding to immobilized αS fibrils; conditions: 1:1 kinetic binding model; for kd / kon: error s.e.m.; for kon: read-out: ka
T2 construct: made in house; host or cells: E. coli BL21 (DE3)
Description: All work was carried out using Biacore T200 at 25 °C. CM5 chips were activated by flowing 0.01 M N-hydroxysuccinimide, 0.4 M […] at a flow rate of 10 µl min^−1 for 7 min over two lanes. Preformed αS or Aβ42 fibrils (derived from the endpoints of low seeded aggregation reactions) at a concentration of 1 µM in sodium acetate (10 mM, pH 4.0) were injected onto a single lane in 60 s bursts at 5 µl min^−1 until a response of 2,000 units was reached. […] Different small molecule concentrations were then flowed over both lanes in a pyramidal arrangement in duplicate with blank subtraction (association time 3 min, dissociation time 10 min). The running buffer was sodium phosphate (20 mM, 1 mM EDTA, variable pH) with 1% DMSO. Fitting was carried out on Biacore T200 Evaluation Software, version 3.2, using a 1:1 binding model with the refractive index set to a constant value of 0 response units.

Aβ42 fibrils = target: T3, Aβ42 fibrils (Homo sapiens, UniProt P05067); assay: SPR binding to immobilized Aβ42 fibrils; conditions: pH 8
T3 construct: The recombinant Aβ42 peptide ([…] […] […] […] IA), here called Aβ42; made in house; host or cells: Escherichia coli BL21 Gold (DE3)
Description: (§1) Solutions of monomeric Aβ42 were prepared by dissolving the lyophilized Aβ42 peptide in 6 M guanidinium hydrocholoride (GuHCl). Monomeric forms were purified from potential oligomeric species and salt using a Superdex 75 10/300 GL column (GE Healthcare) at a flow rate of 0.5 ml min^−1, and were eluted in 20 mM sodium phosphate buffer, pH 8 supplemented with 200 µM EDTA and 0.02% NaN3. The center of the peak was collected and the peptide concentration was determined from the absorbance of the integrated peak area using ε280 = 1,490 l mol^−1 cm^−1. The obtained monomer was diluted with buffer to the desired concentration and supplemented with 20 μM ThT from a 2 mM stock. Each sample was then pipetted into multiple wells of a 96-well half-area, low-binding, clear-bottom and polyethylene glycol-coated plate (Corning 3881), 80 µl per well, in the absence and the presence of different molar-equivalents of small molecules (1% DMSO). Assays were initiated by placing the 96-well plate at 37 °C under quiescent conditions in a plate reader (Fluostar Omega, Fluostar Optima or Fluostar Galaxy, BMGLabtech). The ThT fluorescence was measured through the bottom of the plate using a 440 nm excitation filter and a 480 nm emission filter. Fibrils were extracted directly from wells and used on the day for SPR experiments.
All work was carried out using Biacore T200 at 25 °C. […]

[2] = target: T4, Aβ42 secondary nucleation (Homo sapiens, UniProt P05067); assay: seeded Aβ42 aggregation kinetics (ThT); format: biochemical; conditions: 2 μM Aβ42, 40 nM seed, pH 8
T4 construct: The recombinant Aβ42 peptide ([…] […] […] […] IA), here called Aβ42; made in house; host or cells: Escherichia coli BL21 Gold (DE3)
Description: as §1

[3] = target: T1, αS aggregation (surface-catalyzed secondary nucleation); set-up: method as in PMID 36374974; conditions: cited from earlier work

T3 sequence (P05067 671-713): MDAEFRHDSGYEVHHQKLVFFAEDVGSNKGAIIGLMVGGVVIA
T4 sequence (P05067 671-713): as above

SMILES | IC50 ([1]; 1/t1/2 fitted to a Hill slope, 10 µM αS, 25 nM seeds, pH 4.8, 37 °C, read-out: KIC50 (concentration at which t1/2 is increased by 50% with respect to the control)) | Kd (αS fibrils; pH 4.8) | kd (αS fibrils; pH 4.8) | kon (αS fibrils; pH 4.8) | Kd (αS fibrils; pH 8) | kd (αS fibrils; pH 8) | kon (αS fibrils; pH 8) | binding to Aβ42 fibrils (Aβ42 fibrils) | effect on seeded aggregation of Aβ42 [2] | activity in aggregation assays (docking set) [3] | IC50 ([1]; extrapolated from Hill fit of 1/t1/2, read-out: extrapolated KIC50)
O=C1NN(c2ccc(F)cc2)C(=O)/C1=C/c1ccc(-c2ccc(Cl)c(C(=O)O)c2)o1 [I4.05] | 520 nM | 68 nM | 1.315 ± 0.003 × 10^−2 s^−1 | 194000 ± 7e+07 M⁻¹ s⁻¹ | 13 nM | 0.781 ± 0.002 × 10^−2 s^−1 | 588000 ± 2.4e+08 M⁻¹ s⁻¹ | unable to effectively inhibit Aβ42 secondary nucleation or bind to Aβ42 fibrils; also recorded: nor does it bind effectively to Aβ42 fibrils | unable to effectively inhibit Aβ42 secondary nucleation; also recorded: no effect |  | 
Cc1c(OCc2nnn[nH]2)ccc2c1oc(=O)c1ccccc12 [molecule 48] |  |  |  |  |  |  |  |  |  | active | 
O=C1NN(c2ccccc2)C(=O)C1=Cc1coc2ccccc2c1=O [molecule 69] |  |  |  |  |  |  |  |  |  | active | 18200 nM
